Consider 21 compounds from patent publication US12246002B2, “Pharmaceutical composition for prevention or treatment of circadian rhythm-related disorders, comprising oxyiminomethylbenzene derivative as active ingredient” (KOREA UNIVERSITY RESEARCH AND BUSINESS FOUNDATION, priority 2018, dated 2025).

The test system of one data set is CLOCK:BMAL1 dimer. As to the kind of experiment: E-box-LUC reporter assay of transcriptional activity of CLOCK:BMAL1 dimer in NIH-3T3 fibroblast line. Format: cell-based. To be noted: NIH-3T3 E-box-LUC cells; for Max (%) maximum activity of E-box-LUC reporter compared to the control group: four parameter logistic fit, DMSO control. As to the method: The NIH-3T3 fibroblast line (Non-patent document 6) expressing the E-box-LUC reporter was used to evaluate the effect of the oxyiminomethylbenzene derivative on the transcriptional activity of the CLOCK:BMAL1 dimer mediated by E-box. Reporter-expressing fibroblast line was maintained and cultured in an incubator in a humidified state at 5% carbon dioxide and 37 degrees Celsius, using Dulbecco's modified eagles medium (Invitrogen) having 10% fetal bovine serum, 1% penicillin/streptomycin (Invitrogen) and 1% L-glutamine added thereto.
(§1) The reporter-expressing cell line was dispensed and cultured in a 48-well culture plate 24 hours before compound treatment. The cultured cells were finally treated with a compound to a concentration of 0.1, 0.3, 1.0, 3.0, 10, 30 or 100 μM. As a control group (0 μM), cells treated with the same amount of dimethyl sulfoxide (DMSO) were used. After 36 hours elapsed after treatment of the compound, the cells were washed twice with 1× D-PBS, and was lysed for 15 minutes using 100 μl of a cell lysis buffer (Promega) per well. After reacting a 20 μl sample of the lysate with the same amount of a luciferase assay reagent (Promega), the luciferase activity was measured using a luminometer (TD-20/20 Luminometer, Turner systems). The measured luciferase activity was corrected based on the protein content of the lysate. The protein content was measured using a Bradford staining reagent from Bio-rad.
(§2) The concentration-response correlation for each derivative was converted to a standard curve using Four Parameter Logistic Equation. The calculation process utilized the statistical analysis function provided by SigmaPlot 10.0 ([…], Systat Software Inc.). Based on the concentration-response curve, the maximum activity (Max) and EC50 values of each derivative were calculated and input in [Table 1]. When the compound induces cell death, cytotoxicity (Tox.) was input to the EC50 field. The concentration-reaction correlation curves of compounds of Chemical Formula 8-9, 9-9, 8-10 and 9-10 as a representative example are shown in FIG. 1.
(In general: A reporter such as luciferase makes a cellular process visible.)

For a further data set, the system named is NIH-3T3 fibroblast line. In words: Cytotoxicity (cell death) seen in the E-box-LUC reporter assay. Format: cell-based. As to conditions: for cytotoxicity (Tox.) input to the EC50 field when the compound induces cell death: NIH-3T3 E-box-LUC cells, 0.1-100 μM, 36 hours. As to the method: as §1, §2
For a further data set, the system named is PER2-LUC fusion protein. As to the kind of experiment: Circadian rhythm expression of PER2-LUC fusion protein in PER2-LUC knock-in fibroblasts (real-time bioluminescence, Cosinor analysis). It counts as cell-based, mouse. To be noted: 20 μM, PER2-LUC KI fibroblasts, FIG. 3; for amplitude of the circadian rhythm expression of the PER2-LUC fusion protein: DEX synchronized, up to 5 days. The protocol:
The effects of the compounds (8-9 and 8-10) prepared in Example 1 on the circadian rhythm expression of the molecular biological clock whose the cells are expressed through inhibition of CRY and enhancement of transcriptional activity of CLOCK:BMAL1 were evaluated. To this end, a mutant fibroblast line (PER2-LUC knock-in fibroblast) was used in which a PER2-LUC fusion protein is expressed via linking the luciferase gene from the position where the stop codon of the PER2 gene is located. The cell line was established from lung tissue of PER2-LUC knock-in mutant mice (Non-patent document 31) 1 week after birth. PER2-LUC knock-in (KI) fibroblasts was maintained and cultured in the incubator under a humidified state at 5% carbon dioxide and 37 degrees Celsius using Dulbecco's modified Eagle medium supplemented with 10% serum, 1% penicillin/streptomycin, and 1% L-glutamine.
After treating the cultured cells with 200 nM dexamethasone (DEX) for 2 hours for synchronization, the DEX was replaced with a medium including the substrate of luciferase that is, luciferin (final concentration 0.1 mM) with 20 μM of the compound of Chemical Formula 8-9 or 8-10. As a control group, cells (VEH) treated with the same amount of dimethyl sulfoxide instead of the compound were used. As another comparative group, the cells treated with a 2-ethoxypropionic acid-based CRY inhibitor (Non-patent document 6), that is, KS15 (final concentration 20 μM) was used. The control and the KS15-treated cells were also replaced with a medium including luciferin of the same concentration.
Bioluminescence signals generated from cells cultured in a medium including the compound and luciferin were continuously measured for up to 5 days at 10-minute intervals using a real-time bioluminescence measurement equipment (Kronos-DIO, ATTO). The results were identified through statistical detrending. The circadian rhythm expression pattern of the PER2-LUC fusion protein was analyzed using the Cosinor analysis program (free distribution on http://www.circadian.org) to determine the amplitude, period, and robustness of the periodicity. Based on the results obtained through 4 replicate experiments, the statistical significance of the change according to compound treatment was verified.

As to `CC(=NOCc1ccc(Br)cc1)c1cccc(OCC(=O)NCc2ccccn2)c1` [Compound 8-7, 2-{3-[N-(4-bromophenyl)methoxyethanimidoyl]phenoxy}-N-[(pyridin-2-yl)methyl]acetamide], the “Max (%) maximum activity of E-box-LUC reporter compared to the control group” value (from here on “Max (%) maximum activity”) with CLOCK:BMAL1 dimer (0.1-100 μM, 36 hours) is reported as 129.69%. Turning to `CC(=NOCc1cccc(C(F)(F)F)c1)c1ccc(OCC(=O)O)cc1` [Compound 9-2, {4-[N-{[3-(trifluoromethyl)phenyl]methoxy}ethanimidoyl]phenoxy}acetic acid], the “Max (%) maximum activity” value in the data set with CLOCK:BMAL1 dimer (0.1-100 μM, 36 hours) came out at 115.15%.

Take `CC(=NOCc1ccc(Br)cc1)c1ccc(OCC(=O)NCCc2ncc[nH]2)cc1` [Compound 9-8, 2-{4-[N-(4-bromophenyl)methoxyethanimidoyl]phenoxy}-N-[2-(1H-imidazol-2-yl)ethyl]acetamide]: the “Max (%) maximum activity” value with CLOCK:BMAL1 dimer (0.1-100 μM, 36 hours) worked out at 120.89%.

`COC(=O)COc1cccc(C(C)=NOCc2ccc([N+](=O)[O-])cc2)c1` [Compound 8-9, methyl 2-(3-{N-[(4-nitrophenyl)methoxy]ethanimidoyl}phenoxy)acetate]: the “activity of E-box-LUC (concentration-response, FIG. 1)” value in the data set with CLOCK:BMAL1 dimer is listed as “increase the activity of E-box-LUC in a concentration-dependent manner”. Besides, in the data set on NIH-3T3 fibroblast line (at up to 100 μM), the cytotoxicity result was “No significant cytotoxicity”. Also, in the data set with PER2-LUC fusion protein, the “amplitude of the circadian rhythm expression of the PER2-LUC fusion protein” value is recorded as “increases the amplitude of the circadian rhythm expression of the PER2-LUC fusion protein at a significant level”, the “period of the circadian rhythm expression of the PER2-LUC fusion protein” value is recorded as “not affecting the period” and the “robustness of the circadian rhythm expression of the PER2-LUC fusion protein” value is listed as “not affecting the period or robustness”.

On to `COC(=O)COc1ccc(C(C)=NOCc2cccc(C(F)(F)F)c2)cc1` [Compound 9-1, methyl 2-{4-[N-{[3-(trifluoromethyl)phenyl]methoxy}ethanimidoyl]phenoxy}acetate], for which the “Max (%) maximum activity” value in the data set with CLOCK:BMAL1 dimer (0.1-100 μM, 36 hours) came out at 107.89%. As for `CC(=NOCc1ccc(Br)cc1)c1cccc(OCC(=O)NCCc2ncc[nH]2)c1` [Compound 8-8, 2-{3-[N-(4-bromophenyl)methoxyethanimidoyl]phenoxy}-N-[2-(1H-imidazol-2-yl)ethyl]acetamide], the “Max (%) maximum activity” value in the data set with CLOCK:BMAL1 dimer (0.1-100 μM, 36 hours) was 121.10%. The “cytotoxicity (Tox.) input to the EC50 field when the compound induces cell death” value (“cytotoxicity (Tox.) input” below) in the data set with NIH-3T3 fibroblast line was “(Tox.)”. For the compound `COC(=O)COc1ccc(C(C)=NOCc2ccc(S(C)(=O)=O)cc2)cc1` [Compound 9-11, methyl 2-{4-[N-{[4-(methanesulfonyl)phenyl]methoxy}ethanimidoyl]phenoxy}acetate], the “Max (%) maximum activity” value in the data set with CLOCK:BMAL1 dimer (0.1-100 μM, 36 hours) came to 100.39%. Consider `COC(=O)COc1cccc(C(C)=NOCc2ccc(Br)cc2)c1` [Compound 8-5, methyl 2-(3-{N-[(4-bromophenyl)methoxy]ethanimidoyl}phenoxy)acetate], for which the “cytotoxicity (Tox.) input” value with NIH-3T3 fibroblast line was “(Tox.)”.

With `CC(=NOCc1ccc(Br)cc1)c1ccc(OCC(=O)NCc2ccccn2)cc1` [Compound 9-7, 2-{4-[N-(4-bromophenyl)methoxyethanimidoyl]phenoxy}-N-[(pyridin-2-yl)methyl]acetamide], in the data set on CLOCK:BMAL1 dimer (0.1-100 μM, 36 hours), the “Max (%) maximum activity” value was found to be 135.47%. For `COC(=O)COc1cccc(C(C)=NOCc2ccc(F)cc2)c1` [Compound 8-13], in the data set with CLOCK:BMAL1 dimer (0.1-100 μM, 36 hours), the “Max (%) maximum activity” value is on record as 119.93%. Also, in the data set on NIH-3T3 fibroblast line, the “cytotoxicity (Tox.) input” value is given as “(Tox.)”. For the compound `CC(=NOCc1ccc(S(C)(=O)=O)cc1)c1cccc(OCC(=O)O)c1` [Compound 8-12, {3-[N-{[4-(methanesulfonyl)phenyl]methoxy}ethanimidoyl]phenoxy}acetic acid], in the data set on CLOCK:BMAL1 dimer (0.1-100 μM, 36 hours), the “Max (%) maximum activity” value stood at 98.71%. On to `CC(=NOCc1ccc(Br)cc1)c1ccc(OCC(=O)O)cc1` [Compound 9-6, (4-{N-[(4-bromophenyl)methoxy]ethanimidoyl}phenoxy)acetic acid], for which the “Max (%) maximum activity” value in the data set on CLOCK:BMAL1 dimer (0.1-100 μM, 36 hours) is recorded as 106.70%. For `COC(=O)COc1ccc(C(C)=NOCc2ccc(OC)cc2)cc1` [Compound 9-3, methyl 2-(4-{N-[(4-methoxyphenyl)methoxy]ethanimidoyl}phenoxy)acetate], in the data set with CLOCK:BMAL1 dimer (0.1-100 μM, 36 hours), the “Max (%) maximum activity” value was determined as 103.87%. As to `COc1ccc(CON=C(C)c2ccc(OCC(=O)O)cc2)cc1` [Compound 9-4, (4-{N-[(4-methoxyphenyl)methoxy]ethanimidoyl}phenoxy)acetic acid], the “Max (%) maximum activity” value with CLOCK:BMAL1 dimer (0.1-100 μM, 36 hours) stood at 102.65%. A word on the EC50: it is the concentration needed to bring the measured effect to its halfway point. The low end stands for a more potent agent, the high end for a less potent agent. For `COC(=O)COc1cccc(C(C)=NOCc2cccc(C(F)(F)F)c2)c1` [Compound 8-1, methyl 2-{3-[N-{[3-(trifluoromethyl)phenyl]methoxy}ethanimidoyl]phenoxy}acetate], in the data set with CLOCK:BMAL1 dimer (0.1-100 μM, 36 hours), the EC50 was found to be 27.4 µM.

`COC(=O)COc1ccc(C(C)=NOCc2ccc([N+](=O)[O-])cc2)cc1` [Compound 9-9, methyl 2-(4-{N-[(4-nitrophenyl)methoxy]ethanimidoyl}phenoxy)acetate]: in the data set with CLOCK:BMAL1 dimer (0.1-100 μM, 36 hours), the “Max (%) maximum activity” value is given as 113.52%. As to `CC(=NOCc1ccc(Br)cc1)c1cccc(OCC(=O)O)c1` [Compound 8-6, (3-{N-[(4-bromophenyl)methoxy]ethanimidoyl}phenoxy)acetic acid], in the data set with CLOCK:BMAL1 dimer (0.1-100 μM, 36 hours), the “Max (%) maximum activity” value is recorded as 123.78%. For the same compound, in the data set on NIH-3T3 fibroblast line, the “cytotoxicity (Tox.) input” value is “(Tox.)”. For `COC(=O)COc1ccc(C(C)=NOCc2ccc(Br)cc2)cc1` [Compound 9-5, methyl 2-(4-{N-[(4-bromophenyl)methoxy]ethanimidoyl}phenoxy)acetate], the “Max (%) maximum activity” value with CLOCK:BMAL1 dimer (0.1-100 μM, 36 hours) amounted to 111.88%. On the same count and under the same terms, next, `CC(=NOCc1ccc([N+](=O)[O-])cc1)c1ccc(OCC(=O)O)cc1` [Compound 9-10, (4-{N-[(4-nitrophenyl)methoxy]ethanimidoyl}phenoxy)acetic acid]: 108.43%. In the case of `CC(=NOCc1ccc([N+](=O)[O-])cc1)c1cccc(OCC(=O)O)c1` [Compound 8-10, (3-{N-[(4-nitrophenyl)methoxy]ethanimidoyl}phenoxy)acetic acid], the “activity of E-box-LUC (concentration-response, FIG. 1)” value in the data set on CLOCK:BMAL1 dimer is given as “increase the activity of E-box-LUC in a concentration-dependent manner”. Also, in the data set on PER2-LUC fusion protein, the “amplitude of the circadian rhythm expression of the PER2-LUC fusion protein” value is on record as “increases the amplitude of the circadian rhythm expression of the PER2-LUC fusion protein at a significant level”, the “period of the circadian rhythm expression of the PER2-LUC fusion protein” value is recorded as “not affecting the period” and the “robustness of the circadian rhythm expression of the PER2-LUC fusion protein” value is recorded as “not affecting the period or robustness”. As for `CC(=NOCc1ccc(S(C)(=O)=O)cc1)c1ccc(OCC(=O)O)cc1` [Compound 9-12, {4-[N-{[4-(methanesulfonyl)phenyl]methoxy}ethanimidoyl]phenoxy}acetic acid], the “Max (%) maximum activity” value in the data set on CLOCK:BMAL1 dimer (0.1-100 μM, 36 hours) was 111.38%.
